US10457642B2, “211-astatine containing radiotherapeutics for the treatment of cancer” (The Trustees of The University of Pennsylvania, priority 2015, dated 2019)
Values joined by “and” are separate entries in the source; they are usually repeats but may differ in a detail not shown here. Identical values can stand only once. Like-named read-outs stand apart in the source and are kept apart here.

Key:
sigma-2 receptor = molecular target: T1, sigma-2 receptor (Homo sapiens, UniProt Q5BJF2); assay: In vitro live cellular binding studies in MDA-MB-231 breast cancer cells; conditions: MDA-MB-231 cells
T1 construct: was evaluated in MDA-MB-231 breast cancer cells (ATCC-HTB-26) known to have high sigma-2 receptor density; host or cells: MDA-MB-231 (living, plated cells)
Protocol: MDA-MB-231 were cultured in Minimum Essential Media (MEM) with added nutrients, 10% fetal bovine serum (FBS) and 1% penicillin/streptomycin at 5% CO2 and 37° C. Twenty-four hours before assay cells were plated at 50,000 cell/well in 96-well format. Two solutions of freshly synthesized radioligand were diluted to a concentration of approximately 2,000 cpm/μL in phosphate buffered saline with calcium and magnesium (PBS w/ Ca^2+ and Mg^2+), with and without non-radioactive 100 μM of the standard to determine non-specific binding. […] Total volume of treatment in each well was 50 μL. PBS w/ Ca^2+ and Mg^2+ without substrate was added to the last row of wells and was used for protein quantification at the end of the experiment. Treatment was removed at time points over the course of 2 h (n=4/time point). At each time of treatment removal, wells were washed with PBS×3. At the end of the experiment wells were counted on an automatic gamma counter using a custom protocol with an energy window of 70-110 KeV (Wizard™ 2470, Perkin Elmer, Waltham Mass.). Protein quantification was performed using a modified Lowry method. Independent experiments were repeated in triplicate. One-phase association kinetics were modeled using Prism™ software version 6.0 (La Holla, Calif.).

[1] = Protocol: Tumors were grown by subcutaneously injecting 1×10^6 EMT-6 mouse breast cancer cells (ATCC #CRL-2755) into the flanks of female BALB/c mice (Taconic). Tumors were an appropriate size of approximately 200 mm^3 after 14 days of growth. On the day of experiment 10 μCi of newly synthesized ^211At—N-(6,7-dimethoxy-3,4-dihydroisoquinolin-2(1H)-yl)butyl)-2,3-dimethoxybenzamide in saline (ethanol<5%) was administered intravenously to mice under isoflurane anesthesia. Mice were sacrificed by cervical dislocation followed by immediate cardiac puncture post administration at time points of 5 min, 1, 2, 4, 8, and 24 h (n=4 mice/time point). Tissue harvested included; blood, heart, muscle, lung, kidney, pancreas, spleen, liver, skin, brain, thyroid, stomach and EMT-6 tumor. Tissues were weighed and counted on an automatic gamma counter as previously described. All animal experiments were conducted under IACUC-approved protocols compliant with University of Pennsylvania guidelines for the care and use of research animals.
[2] = in vivo; cited from earlier work

T1 sequence (Q5BJF2 whole entry): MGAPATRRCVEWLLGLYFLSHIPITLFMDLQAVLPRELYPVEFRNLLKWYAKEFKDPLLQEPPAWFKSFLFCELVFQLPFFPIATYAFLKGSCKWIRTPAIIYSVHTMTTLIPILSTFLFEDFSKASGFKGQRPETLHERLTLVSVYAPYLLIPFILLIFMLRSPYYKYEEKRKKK

## COc1cc2c(cc1OC)CN(CCCCNC(=O)c1cc([211At])cc(OC)c1OC)CC2 [^211At—N-(6,7-dimethoxy-3,4-dihydroisoquinolin-2(1H)-yl)butyl)-2,3-dimethoxybenzamide]
sigma-2 receptor; +100 μM non-radioactive standard
  reduction in total binding through the addition of the standard: 80%
sigma-2 receptor; one-phase association
  time of 50% maximal binding (T1/2): 12.51 min
[1]; 5 min after i.v.
  Decay corrected biodistribution, Blood: 4.06 ± 0.19 % ID/g
  Decay corrected biodistribution, Brain: 1.95 ± 0.14 % ID/g
  Decay corrected biodistribution, Heart: 10.2 ± 0.82 % ID/g
  Decay corrected biodistribution, Kidney: 47.7 % ID/g and 47.7 ± 2.32 % ID/g
  Decay corrected biodistribution, Liver: 18.1 ± 2.11 % ID/g
  Decay corrected biodistribution, Lung: 20.2 ± 1.39 % ID/g
  Decay corrected biodistribution, Muscle: 0.69 ± 0.16 % ID/g
  Decay corrected biodistribution, Pancreas: 8.81 ± 1.21 % ID/g
  Decay corrected biodistribution, Skin: 0.58 ± 0.05 % ID/g
  Decay corrected biodistribution, Spleen: 8.41 ± 2.67 % ID/g
  Decay corrected biodistribution, Stomach: 5.87 ± 1.12 % ID/g
  Decay corrected biodistribution, Thyroid: 5.87 ± 0.85 % ID/g
[1]; 1 h after i.v.
  Decay corrected biodistribution, Blood: 2.12 ± 0.15 % ID/g
  Decay corrected biodistribution, Brain: 0.46 ± 0.08 % ID/g
  Decay corrected biodistribution, Heart: 5.16 ± 1.21 % ID/g
  Decay corrected biodistribution, Kidney: 5.83 % ID/g and 5.83 ± 0.53 % ID/g
  Decay corrected biodistribution, Liver: 6.39 ± 3.27 % ID/g
  Decay corrected biodistribution, Lung: 7.14 ± 1.03 % ID/g
  Decay corrected biodistribution, Muscle: 1.24 ± 0.18 % ID/g
  Decay corrected biodistribution, Pancreas: 18.1 ± 1.60 % ID/g
  Decay corrected biodistribution, Skin: 2.30 ± 0.23 % ID/g
  Decay corrected biodistribution, Spleen: 13.2 ± 2.76 % ID/g
  Decay corrected biodistribution, Stomach: 15.9 ± 2.53 % ID/g
  Decay corrected biodistribution, Thyroid: 11.6 ± 1.01 % ID/g
[1]; 2 h after i.v.
  Decay corrected biodistribution, Blood: 2.43 ± 0.82 % ID/g
  Decay corrected biodistribution, Brain: 0.39 ± 0.01 % ID/g
  Decay corrected biodistribution, Heart: 4.70 ± 0.31 % ID/g
  Decay corrected biodistribution, Kidney: 5.59 ± 0.35 % ID/g
  Decay corrected biodistribution, Liver: 4.63 ± 1.01 % ID/g
  Decay corrected biodistribution, Lung: 6.42 ± 0.39 % ID/g
  Decay corrected biodistribution, Muscle: 1.15 ± 0.07 % ID/g
  Decay corrected biodistribution, Pancreas: 18.0 ± 1.65 % ID/g
  Decay corrected biodistribution, Skin: 2.66 ± 0.30 % ID/g
  Decay corrected biodistribution, Spleen: 12.0 ± 1.47 % ID/g
  Decay corrected biodistribution, Stomach: 16.3 ± 2.29 % ID/g
  Decay corrected biodistribution, Thyroid: 18.3 ± 6.12 % ID/g
[1]; 4 h after i.v.
  Decay corrected biodistribution, Blood: 1.64 ± 0.11 % ID/g
  Decay corrected biodistribution, Brain: 0.21 ± 0.02 % ID/g
  Decay corrected biodistribution, Heart: 3.54 ± 0.17 % ID/g
  Decay corrected biodistribution, Kidney: 2.97 ± 0.13 % ID/g
  Decay corrected biodistribution, Liver: 1.87 ± 0.17 % ID/g
  Decay corrected biodistribution, Lung: 5.74 ± 0.53 % ID/g
  Decay corrected biodistribution, Muscle: 0.56 ± 0.03 % ID/g
  Decay corrected biodistribution, Pancreas: 26.3 ± 2.11 % ID/g
  Decay corrected biodistribution, Skin: 1.79 ± 0.15 % ID/g
  Decay corrected biodistribution, Spleen: 7.59 ± 0.49 % ID/g
  Decay corrected biodistribution, Stomach: 19.7 ± 1.79 % ID/g
  Decay corrected biodistribution, Thyroid: 14.0 ± 4.26 % ID/g
[1]; 8 h after i.v.
  Decay corrected biodistribution, Blood: 1.82 ± 0.10 % ID/g
  Decay corrected biodistribution, Brain: 0.25 ± 0.02 % ID/g
  Decay corrected biodistribution, Heart: 4.01 ± 0.29 % ID/g
  Decay corrected biodistribution, Kidney: 3.24 ± 0.21 % ID/g
  Decay corrected biodistribution, Liver: 1.86 ± 0.19 % ID/g
  Decay corrected biodistribution, Lung: 6.23 ± 0.57 % ID/g
  Decay corrected biodistribution, Muscle: 0.61 ± 0.04 % ID/g
  Decay corrected biodistribution, Pancreas: 21.1 ± 2.35 % ID/g
  Decay corrected biodistribution, Skin: 2.10 ± 0.42 % ID/g
  Decay corrected biodistribution, Spleen: 7.49 ± 1.38 % ID/g
  Decay corrected biodistribution, Stomach: 28.2 ± 7.21 % ID/g
  Decay corrected biodistribution, Thyroid: 13.3 ± 2.96 % ID/g
[1]; 24 h after i.v.
  Decay corrected biodistribution, Blood: 0.44 ± 0.10 % ID/g
  Decay corrected biodistribution, Brain: 0.07 ± 0.02 % ID/g
  Decay corrected biodistribution, Heart: 1.14 ± 0.27 % ID/g
  Decay corrected biodistribution, Kidney: 1.05 ± 0.23 % ID/g
  Decay corrected biodistribution, Liver: 0.59 ± 0.20 % ID/g
  Decay corrected biodistribution, Lung: 2.21 ± 0.40 % ID/g
  Decay corrected biodistribution, Muscle: 0.19 ± 0.01 % ID/g
  Decay corrected biodistribution, Pancreas: 5.78 ± 0.89 % ID/g
  Decay corrected biodistribution, Skin: 0.85 ± 0.08 % ID/g
  Decay corrected biodistribution, Spleen: 2.14 ± 1.02 % ID/g
  Decay corrected biodistribution, Stomach: 9.88 ± 1.62 % ID/g
  Decay corrected biodistribution, Thyroid: 4.87 ± 1.15 % ID/g
[1]; EMT-6 tumor
  retention of radioactivity in the tumor, time post administration: 1 to 8 h
[1]; EMT-6 tumor, 5 min after i.v.
  Decay corrected biodistribution, Tumor: 0.74 ± 0.07 % ID/g
[1]; EMT-6 tumor, 1 h after i.v.
  Decay corrected biodistribution, Tumor: 4.40 ± 0.15 % ID/g
[1]; EMT-6 tumor, 2 h after i.v.
  Decay corrected biodistribution, Tumor: 4.93 ± 0.78 % ID/g
[1]; EMT-6 tumor, 4 h after i.v.
  Decay corrected biodistribution, Tumor: 5.05 ± 0.68 % ID/g
[1]; EMT-6 tumor, 8 h after i.v.
  Decay corrected biodistribution, Tumor: 5.11 ± 0.09 % ID/g
[1]; EMT-6 tumor, 24 h after i.v.
  Decay corrected biodistribution, Tumor: 1.34 ± 0.37 % ID/g
[1]; EMT-6 tumor, from 1 h to at least 8 h
  Tumor accumulation: above 4 % ID/g
[1]; at 4 h
  maximal tumor to muscle ratio: 9.02

## COc1cc2c(cc1OC)CN(CCCCNC(=O)c1cc(I)cc(OC)c1OC)CC2 [iodinated sigma-2 ligand standard, 5-iodo-N-(4-(6,7-dimethoxy-3,4-dihydroisoquinolin-2(1H)-yl)butyl)-2,3-dimethoxybenzamide]
[2]
  tumor uptake: 2 % ID/g
